# Test results from patent US4918062A, “Pharmaceutical compositions for the treatment of cerebral psycho-organic syndromes” (Riace Establishment, priority 1987, dated 1990).
# How the values were obtained:
# learning and memory [1] = assay: pole-climbing test as described by Cook and Weindley (learning and memory); type: in vivo; details: male rats, 100 mg/kg i.p.
# acute toxicity in mice = details: mouse, in vivo
# Source text: (§1) As far as acute toxicity is concerned, the following data are obtained: […]
# [2] = acute toxicity in rabbits; details: rabbit, in vivo
# Source text: as §1
# [3] = test system: senile cerebral alteration, of both involutive and cerebro-vascular insufficiency origin; assay: clinical tests in the treatment of senile cerebral alteration (overall clinical evaluation); type: in vivo, man
# Experimental: 20 patients (10 male and 10 female) 59 to 76 years old were treated; the overall clinical evaluation, taking into account the improvement of the neurophysiological and neurological exams carried out, of the psychometric tests and of the used neurological scale (De Renzi E., Nichelli P.: Verbal and non-verbal short-term memory impairment following hemispheric damage, Cortex, 11, 341-354, 1975; Bisiach E. et. al.: Neurologia Clinica, Ricerche di psicologia, Ed. F. Angeli, Milano, 1977; Cafarra P. et al.: Neuropsychological testing during a transient global amnesia episode and its follow-up, Acta Neurol. Scand.
# acute toxicity in rats = details: rat, in vivo
# Source text: as §1
# learning and memory [4] = assay: learning and memory tests in laboratory animals (summary statement); type: in vivo
# Experimental: (§2) The GPE administered i.p. to 20 male mice at the dose of 100 mg/kg subjected to the electroshock test as described by Esseman in Pharmacol. Res. comm.
# learning and memory [5] = assay: electroshock test as described by Esseman (learning and memory); type: in vivo; details: male mice, 100 mg/kg i.p.
# Experimental: as §2
# [6] = oral route, read-out: oral dose that did not cause either death or any symptomatology
# [7] = case 1, cerebral vasculopathy with mental decline
# [8] = overall clinical evaluation, 20 patients, 59 to 76 years old
smiles,measurement,setting,value
"NCCOP(=O)(O)OC[C@H](O)CO [GPE, L-α-glycerylphosphorylethanolamine]",ability to activate learning and memory in comparison to the untreated animals,learning and memory [1],significantly shown the ability to activate learning and memory
same,LD50,"acute toxicity in mice; im, intramuscular route",> 1500 mg/kg
same,NOAEL,acute toxicity in mice; [6],≥ 3000 mg/kg
same,LD50,"[2]; im, intramuscular route",> 1000 mg/kg
same,NOAEL,[2]; [6],≥ 3000 mg/kg
same,tolerability (overall),"[3]; 20 patients, 59 to 76 years old",always excellent
same,Evaluation: Activity,[3]; [7],good
same,Evaluation: Tolerability,[3]; [7],very good
same,Evaluation: Activity,"[3]; case 2, mental decline in cerebral vasculopathic",insufficient
same,Evaluation: Activity,"[3]; case 3, cerebral vasculopathy with mental decline",very good
same,Evaluation: Activity,"[3]; case 4, mental involution with serious cerebral atrophy",very good
same,Evaluation: Activity,"[3]; case 5, Alzheimer disease",moderate
same,Evaluation: Activity,"[3]; case 6, cerebral atrophy with extrapiramidal syndrome and decline",moderate
same,Evaluation: Activity,"[3]; case 8, multifocal dementia",good
same,Evaluation: Activity,"[3]; case 9, presenile Alzheimer disease",good
same,Evaluation: Activity,"[3]; case 10, multifocal dementia with incipient cerebral",very good
same,Evaluation: Activity,"[3]; case 11, cerebral vasculopathy with mental decline",very good
same,Evaluation: Activity,"[3]; case 12, Alzheimer disease with cerebral atrophy",good
same,Evaluation: Activity,"[3]; case 13, cerebral vasculopathy with mental decline",good
same,Evaluation: Activity,"[3]; case 14, vasculopathy prevailing in the vertebro-basilar",moderate
same,Evaluation: Activity,"[3]; case 15, cerebral vasculopathy with mental decline",moderate
same,Evaluation: Activity,"[3]; case 16, Alzheimer disease",good
same,Evaluation: Activity,"[3]; case 17, Alzheimer disease with initial cerebral atrophy",very good
same,Evaluation: Activity,"[3]; case 18, Alzheimer disease",very good
same,Evaluation: Activity,"[3]; case 19, cerebral vasculopathy with cerebral atrophy",good
same,Evaluation: Activity,"[3]; case 20, multifocal dementia",good
same,"influence on neurophysiological parameters, psychometric tests and neurologic scales",[3]; man,"ability to influence in a likewise significant way the neurophysiological parameters, the psychometric tests and the used neurologic scales"
same,cases with significantly positive therapeutic effect,[3]; [8],19 cases
same,treatments considered to be insufficient,[3]; [8],only one
same,pharmacological activity in clinical tests,[3]; senile cerebral alteration and related symptomatology,confirmed in clinical tests
same,LD50,"acute toxicity in rats; im, intramuscular route",> 1500 mg/kg
same,NOAEL,acute toxicity in rats; [6],≥ 3000 mg/kg
same,response to the learning and memory tests,learning and memory [4],significantly improve the response to the learning and memory tests
same,ability to activate learning and memory in comparison to the untreated animals,learning and memory [5],significantly shown the ability to activate learning and memory
